The source of these data is ChEMBL document CHEMBL1138184, “Synthesis and structure-activity relationship studies of 1,3-diarylprop-2-yn-1-ones: dual inhibitors of cyclooxygenases and lipoxygenases” (J Med Chem, 2006).

The species named for this assay is Rattus norvegicus. Kind of assay: animal or person. To be noted: Sprague-Dawley, Abdomen, po, 0.5 h, read-out: Inhibition.

Description: Inhibitory activity against 4% NaCl-induced abdominal constriction in Sprague-Dawley rat after 30 min of 5 mg/kg, po

For the compound `Cc1ccc(-c2cc(C(F)(F)F)nn2-c2ccc(S(N)(=O)=O)cc2)cc1` [CELECOXIB], the inhibition in vivo at 5 mg/kg was found to be 69.3%.
